Laboratory results: patent US10973863B2, “Method for regulating, preventing and/or treating pulmonary injury” (SINPHAR PHARMACEUTICAL CO., LTD., priority 2017, dated 2021)

How the values were obtained:
MMP-9 = experiment: Gelatin zymography: LPS-activated active expression of MMP-9 in NR8383 cells; format: cell-based, rat; conditions: LPS 1 μg/mL, 24 hours
Excerpt: As indicated above, when an inflammatory response occurs in animal's pulmonary tissue, the active inflammatory cells will secret MMPs that will destroy the pulmonary tissue structure, cause more serious pulmonary injury, and lead to the decrement in or the loss of pulmonary functions. […]
Thereafter, the medium of each group was collected and respectively subjected to the following procedures. A 10% polyacrylamide gel containing 0.2% gelatin was used to carry out the sodium dodecyl sulfate polyacrylamide gel electrophoresis (SDS-PAGE). After the electrophoresis was completed, the gel was sequentially soaked in 2.5% Triton X-100 solution for 90 minutes to remove SDS, soaked in distillation-distillation water (ddH2O) for 30 minutes, and placed in a reaction solution (50 mM Tris-HCl buffer containing 10 mM CaCl2 and 0.02% NaN3) at a temperature of 37° C. for 18 hours. After the foregoing reaction was completed, the gel was stained by a Coomassie blue staining solution, and the image of stained gel was taken and subjected to an image analysis. The image intensity (the image intensity was calculated based on the size of area and the shade of color) of highlight band (i.e., the gelatin in this area was degraded by MMPs, wherein the area locating around 95 kD molecular weight) on the gel of each group can reflect the active expression of MMP-9 of rat alveolar macrophage NR8383 cells under different conditions (the relative active expression of MMP-9 was calculated by serving the results of the blank group as 0% and serving that of the control group as 100%).
Rat alveolar macrophage NR8383 cells were divided into twenty-eight groups and separately cultivated with the following media for 24 hours: • (1) Blank group: a macrophage growth medium; • (2) Control group: a macrophage growth medium containing 1 μg/mL LPS; • (3) Positive control group: a macrophage growth medium containing 1 μg/mL LPS and 5 μM Prednisolone (a type of corticosteroid; abbreviated as “Pred”; purchased from Sigma-Aldrich); • (4) Extract C (including five sub-groups): a macrophage growth medium containing 1 μg/mL LPS and the extract C provided by [preparation example A-3-2], wherein the extract C is present in the five sub-groups at a concentration of […] respectively; • (5) Extract D (including five sub-groups): a macrophage growth medium containing 1 μg/mL UPS and the extract D provided by [preparation example A-4-2], wherein the extract D is present in the five sub-groups at a concentration of 0.78, 1.56, 3.13, 6.25 and 12.5 respectively; • (6) Extract E (including five sub-groups): a macrophage growth medium containing 1 μg/mL LPS and the extract E provided from [preparation example A-4-3], wherein the extract E is present in the five sub-groups at a concentration of 0.78, 1.56, 3.13, […], and 12.5 respectively; • (7) DATA group (including five sub-groups): a macrophage growth medium containing 1 μg/mL LPS and the dehydrotrametenolic acid (DTTA) provided by [preparation example C-1], wherein the dehydrotrametenolic acid (DTTA) is present in the five sub-groups at a concentration of 0.39, 0.78, 1.56, 3.13 and 6.25 μg/mL respectively; and • (8) PAA group (including live sub-groups): a macrophage growth medium containing 1 μg/mL LPS and the poricoic acid A (PAA) provided from [preparation example C-1], wherein the poricoic acid A (PAA) is present in the five sub-groups at a concentration of 6.25, 12.5, 25, 50 and 100 respectively.
Thereafter, the medium of each group was collected and analyzed by the analyzing procedures same as that of (1-1).

[1] = test system: TGFβ-induced intracellular accumulation of collagen in myofibroblast WI38 cells; experiment: Picrosirius red staining: TGFβ-induced collagen accumulation in WI38 cells; format: cell-based; conditions: 1 ng/mL TGF-β
Excerpt: As indicated above, the hyperactive expression of MMPs will cause pulmonary injury. Under the most circumstances, the response mechanisms in animals will activate, for example, macrophages will secret TGF-β and TGF-β which can promote the lung fibroblasts to secret collagen, so that the damaged tissues can be recovered. However, the hypersecretion of collagen will also lead to lung fibrosis. To investigate whether FU-LING extracts and its active ingredients are effective in regulating, protecting and/or treating the pulmonary injury-related diseases such as lung fibrosis or not, the Picrosirius red (PSR) staining was conducted as a semi-quantification of collagen, so that the inhibitory rate of FU-LING extract and its active ingredients on the TGFβ-induced intracellular accumulation of collagen in myofibroblast WI38 cells can be determined.
Myofibroblast WI38 cells (purchased from ATCC, product no. CCL75™) were divided into ten groups and separately cultivated with the following media for 48 hours:
(1) Blank group: a myolibroblast growth medium;
(2) Control group: a myofibroblast growth medium containing 1 ng/mL TGF-β (purchased from R&D system);
(3) Positive control group: a myofibroblast growth medium containing 1 ng/mL TGF-β and 200 μg/mL Pirfenidone (abbreviated as “Pir”; purchased from Sigma-Aldrich);
(4) Extract A (including four sub-groups): a myofibroblast growth medium containing 1 ng/mL TGF-β and the extract A provided by [Preparation example A-2-2], wherein the extract A is present in the four sub-groups at a concentration of 12.5, 25, 50 and 100 μg/mL respectively; and
(5) Extract B (including three sub-groups): a myofibroblast growth medium containing 1 ng/ml, TGF-β and the extract B provided by [Preparation example A-2-3], wherein the extract B is present in the […] at a concentration of 12.5, 25 and 50 μg/mL respectively.
Thereafter, the media were replaced by methanol to fix the cells at a temperature of −20° C. for 1 to 2 hours. After that, the cells were washed with PBS, and then stained with 0.1% PSR staining agent (purchased from Sigma-Aldrich) at room temperature for 4 hours. The stained cells were washed with 0.1% acetic acid, and then lysed with 0.1N sodium hydroxide to provide a lysate. The OD540 (i.e., the absorbance at a wavelength of 540 nm) of the lysate was measured. OD540 value of each group represents the content of collagen in each group, reflecting the content of collagen in fibroblast WI38 cells under different circumstances (the relative content of collagen in each group was calculated by serving the result of blank group as 0% and serving the result of control group as 100%).
Myofibroblast WI38 cells were divided into twenty-eight groups and separately cultivated with the following media for 24 hours:
(1) Blank group: a myofibroblast growth medium;
(3) Positive control group; a myofibroblast growth medium containing 1 ng/mL TGF-β and 200 μg/mL Pirfenidone (abbreviated as “Pir”; purchased from Sigma-Aldrich);
(4) Extract C group (including five sub-groups): a myofibroblast growth medium containing 1 ng/mL TGF-β and the extract C provided by [preparation example A-3-2], wherein the extract C is present in the five sub-groups at a concentration of […], 6.25 and 12.5 μg/mL respectively;
(5) Extract D group (including five sub-groups): a myofibroblast growth medium containing 1 ng/mL TGF-β and the extract D provided by [preparation example A-4-2], wherein the extract D is present in the five sub-groups at a concentration of 0.78, 1.56, 3.13, 6.25 and 12.5 μg/mL respectively;
(6) Extract E group (including five sub-groups): a myofibroblast growth medium containing 1 ng/mL TGF-β and the extract E provided by [preparation example A-4-3], wherein the extract E is present in the five sub-groups at a concentration of 0.78, 1.56, 3.13, 6.25 and 12.5 μg/mL respectively; […]

## C[C@]12C=CC(=O)C=C1CC[C@@H]1[C@@H]2[C@@H](O)C[C@@]2(C)[C@H]1CC[C@]2(O)C(=O)CO [Pred, Prednisolone, reference compound]
MMP-9; all tested concentrations
  Effect on inhibiting the 1 μg/mL LPS-induced increment in active expression of MMP-9 (in words): cannot inhibit
MMP-9; Table 5, Pred 5 μM, blank 0%, control 100%
  Relative active expression of MMP-9 (%): 97%

## C[C@@H]1C[C@H]2[C@@H]3CCC4=CC(=O)C=C[C@]4(C)[C@@]3(F)[C@@H](O)C[C@]2(C)[C@@]1(O)C(=O)CO [Dex, dexamethasone, reference compound]
MMP-9; Table 4, Dex 1 μM, blank 0%, control 100%
  Relative active expression of MMP-9 (%): 100%

## C=C(CC[C@@H](C(=O)O)[C@H]1[C@H](O)C[C@@]2(C)C3=CC[C@H]4C(C)(C)[C@@H](O)CC[C@]4(C)C3=CC[C@]12C)C(C)C [DTA, dehydrotumulosic acid]
MMP-9; Table 4, 3.13 μg/mL
  Relative active expression of MMP-9 (%): 79.7%
MMP-9; Table 4, 6.25 μg/mL
  Relative active expression of MMP-9 (%): 83.9%
MMP-9; Table 4, 12.5 μg/mL
  Relative active expression of MMP-9 (%): 80.7%

## Cc1ccc(=O)n(-c2ccccc2)c1 [Pir, Pirfenidone, reference compound]
[1]; Table 6, Pir 200 μg/mL, 48 hours, blank 0%, control 100%
  Relative content of collagen (%): 69%
[1]; Table 7, Pir 200 μg/mL, 24 hours, blank 0%, control 100%
  Relative content of collagen (%): 0%

## CC(C)=CCC[C@@H](C(=O)O)[C@H]1CC[C@@]2(C)C3=CC[C@H]4C(C)(C)[C@@H](O)CC[C@]4(C)C3=CC[C@]12C [DTTA, dehydrotrametenolic acid]
[1]; Table 7, 0.39 μg/mL, 24 hours
  Relative content of collagen (%): 25%
[1]; Table 7, 0.78 μg/mL, 24 hours
  Relative content of collagen (%): 100%
[1]; Table 7, 1.56 μg/mL, 24 hours
  Relative content of collagen (%): 25%
[1]; Table 7, 3.13 μg/mL, 24 hours
  Relative content of collagen (%): 53%
[1]; Table 7, 6.25 μg/mL, 24 hours
  Relative content of collagen (%): 70%
MMP-9; Table 5, 0.39 μg/mL
  Relative active expression of MMP-9 (%): 91%
MMP-9; Table 5, 0.78 μg/mL
  Relative active expression of MMP-9 (%): 99%
MMP-9; Table 5, 1.56 μg/mL
  Relative active expression of MMP-9 (%): 79%
MMP-9; Table 5, 3.13 μg/mL
  Relative active expression of MMP-9 (%): 72%
MMP-9; Table 5, 6.25 μg/mL
  Relative active expression of MMP-9 (%): 74%
